Blank lines part the entries; values can stand above or below the compound they belong to.
Columns and labels:
LIMK2 = LIMK2 (UniProt P53671); test: pIC50, competition of probe 3 labelling in live cells; details: cell material: Jurkat cells
UniProt Q9NWV4 = test: as above; details: cell material: Jurkat cells
IRAK4 = biological target: T1, IRAK4 (UniProt Q9NWZ3); test: as above; details: cell material: Jurkat cells
T1 sequence (whole entry): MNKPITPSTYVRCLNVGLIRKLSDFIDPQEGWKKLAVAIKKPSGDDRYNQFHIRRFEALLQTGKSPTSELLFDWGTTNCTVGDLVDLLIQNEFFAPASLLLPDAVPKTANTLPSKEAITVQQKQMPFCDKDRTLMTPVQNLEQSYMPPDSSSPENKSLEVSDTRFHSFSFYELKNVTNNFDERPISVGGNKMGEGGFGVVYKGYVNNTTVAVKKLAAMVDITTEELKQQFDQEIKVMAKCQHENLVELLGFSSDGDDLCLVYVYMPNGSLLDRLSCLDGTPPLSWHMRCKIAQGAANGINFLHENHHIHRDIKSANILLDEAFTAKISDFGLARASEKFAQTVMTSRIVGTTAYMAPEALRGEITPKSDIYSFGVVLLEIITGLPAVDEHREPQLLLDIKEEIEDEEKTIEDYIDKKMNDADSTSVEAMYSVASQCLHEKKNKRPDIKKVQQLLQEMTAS

RPS6KA4 = RPS6KA4 (UniProt O75676); test: as above; details: cell material: Jurkat cells
STK35 = STK35 (UniProt Q8TDR2); test: as above; details: cell material: Jurkat cells
PAK2 = PAK2 (UniProt Q13177); test: as above; details: cell material: Jurkat cells
MGLL = MGLL (UniProt Q99685); test: as above; details: cell material: Jurkat cells
STK33 = STK33 (UniProt Q9BYT3); test: as above; details: cell material: Jurkat cells
UniProt Q14289 = test: as above; details: cell material: Jurkat cells
ILK = biological target: T2, ILK (UniProt Q13418); test: pIC50, kinobeads binding competition
T2 sequence (whole entry): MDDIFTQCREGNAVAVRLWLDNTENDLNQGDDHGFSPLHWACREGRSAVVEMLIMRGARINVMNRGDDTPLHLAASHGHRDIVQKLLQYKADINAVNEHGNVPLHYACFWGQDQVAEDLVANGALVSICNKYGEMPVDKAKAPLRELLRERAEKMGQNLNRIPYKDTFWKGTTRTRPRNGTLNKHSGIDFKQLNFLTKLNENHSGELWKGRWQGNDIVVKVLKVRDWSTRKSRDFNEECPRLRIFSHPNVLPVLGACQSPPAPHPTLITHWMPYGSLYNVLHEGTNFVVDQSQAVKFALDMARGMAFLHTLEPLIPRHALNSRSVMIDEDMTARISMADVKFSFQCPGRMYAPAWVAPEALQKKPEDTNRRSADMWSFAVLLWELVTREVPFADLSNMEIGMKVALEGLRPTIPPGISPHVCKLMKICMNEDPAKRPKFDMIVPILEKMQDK
Procedure, shortened: (§1)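 Either living Jurkat cells (60 min at 37 °C, then lysis) or lysates (60 min at 4 °C) were treated with nine compound concentrations from a top of 30 μM, in 1:4 steps for cells and 1:5 steps for lysates. The lysates were from Jurkat cells or a 1:1:1:1 mix of HEK293, K-562, HepG2 and placenta. Kinobeads-bound proteins were digested and quantified by TMT10 LC-MS/MS. pIC50 was calculated by logistic dose-response fitting (R drc package) of fold changes relative to vehicle, in biological duplicates.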

UniProt Q04912 = test: pIC50, kinobeads binding competition; details: cell material: Lysate mix
Procedure, shortened: as §1

UniProt Q9UQB9 = biological target: T3, UniProt Q9UQB9; test: pIC50, kinobeads binding competition
T3 sequence (whole entry): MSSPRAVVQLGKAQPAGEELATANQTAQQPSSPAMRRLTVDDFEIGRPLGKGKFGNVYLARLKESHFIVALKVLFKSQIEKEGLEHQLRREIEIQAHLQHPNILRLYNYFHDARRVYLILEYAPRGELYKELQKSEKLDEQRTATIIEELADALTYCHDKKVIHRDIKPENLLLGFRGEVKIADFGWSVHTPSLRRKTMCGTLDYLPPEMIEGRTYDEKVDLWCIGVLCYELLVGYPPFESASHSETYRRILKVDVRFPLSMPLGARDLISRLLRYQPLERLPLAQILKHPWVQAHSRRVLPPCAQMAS
Procedure, shortened: as §1

MASTL = biological target: T4, MASTL (UniProt Q96GX5); test: pIC50, kinobeads binding competition
T4 sequence (whole entry): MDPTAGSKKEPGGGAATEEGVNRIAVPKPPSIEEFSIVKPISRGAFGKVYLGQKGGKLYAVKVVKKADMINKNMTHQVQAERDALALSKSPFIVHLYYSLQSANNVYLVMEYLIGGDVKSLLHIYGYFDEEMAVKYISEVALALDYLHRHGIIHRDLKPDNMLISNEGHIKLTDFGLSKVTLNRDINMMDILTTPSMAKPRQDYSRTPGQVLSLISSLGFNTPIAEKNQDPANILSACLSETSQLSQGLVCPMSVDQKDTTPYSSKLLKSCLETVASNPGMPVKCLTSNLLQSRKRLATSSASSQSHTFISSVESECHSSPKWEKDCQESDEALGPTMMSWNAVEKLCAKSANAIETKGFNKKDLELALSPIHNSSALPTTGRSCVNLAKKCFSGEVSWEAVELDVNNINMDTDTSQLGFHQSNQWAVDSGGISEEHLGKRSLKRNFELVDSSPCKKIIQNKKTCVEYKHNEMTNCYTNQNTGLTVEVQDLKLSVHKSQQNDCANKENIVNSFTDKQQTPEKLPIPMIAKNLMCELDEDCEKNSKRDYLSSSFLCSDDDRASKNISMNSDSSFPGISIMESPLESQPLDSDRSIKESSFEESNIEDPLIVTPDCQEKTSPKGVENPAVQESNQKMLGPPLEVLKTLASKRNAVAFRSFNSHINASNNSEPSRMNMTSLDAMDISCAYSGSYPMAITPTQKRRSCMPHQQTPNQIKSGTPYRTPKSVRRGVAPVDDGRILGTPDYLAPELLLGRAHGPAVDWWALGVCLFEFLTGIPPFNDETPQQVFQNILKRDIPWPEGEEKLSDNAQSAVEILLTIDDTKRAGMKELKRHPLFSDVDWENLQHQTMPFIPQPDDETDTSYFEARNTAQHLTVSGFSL
Procedure, shortened: as §1

Chain of UniProt Q04912 (Q04912 whole entry): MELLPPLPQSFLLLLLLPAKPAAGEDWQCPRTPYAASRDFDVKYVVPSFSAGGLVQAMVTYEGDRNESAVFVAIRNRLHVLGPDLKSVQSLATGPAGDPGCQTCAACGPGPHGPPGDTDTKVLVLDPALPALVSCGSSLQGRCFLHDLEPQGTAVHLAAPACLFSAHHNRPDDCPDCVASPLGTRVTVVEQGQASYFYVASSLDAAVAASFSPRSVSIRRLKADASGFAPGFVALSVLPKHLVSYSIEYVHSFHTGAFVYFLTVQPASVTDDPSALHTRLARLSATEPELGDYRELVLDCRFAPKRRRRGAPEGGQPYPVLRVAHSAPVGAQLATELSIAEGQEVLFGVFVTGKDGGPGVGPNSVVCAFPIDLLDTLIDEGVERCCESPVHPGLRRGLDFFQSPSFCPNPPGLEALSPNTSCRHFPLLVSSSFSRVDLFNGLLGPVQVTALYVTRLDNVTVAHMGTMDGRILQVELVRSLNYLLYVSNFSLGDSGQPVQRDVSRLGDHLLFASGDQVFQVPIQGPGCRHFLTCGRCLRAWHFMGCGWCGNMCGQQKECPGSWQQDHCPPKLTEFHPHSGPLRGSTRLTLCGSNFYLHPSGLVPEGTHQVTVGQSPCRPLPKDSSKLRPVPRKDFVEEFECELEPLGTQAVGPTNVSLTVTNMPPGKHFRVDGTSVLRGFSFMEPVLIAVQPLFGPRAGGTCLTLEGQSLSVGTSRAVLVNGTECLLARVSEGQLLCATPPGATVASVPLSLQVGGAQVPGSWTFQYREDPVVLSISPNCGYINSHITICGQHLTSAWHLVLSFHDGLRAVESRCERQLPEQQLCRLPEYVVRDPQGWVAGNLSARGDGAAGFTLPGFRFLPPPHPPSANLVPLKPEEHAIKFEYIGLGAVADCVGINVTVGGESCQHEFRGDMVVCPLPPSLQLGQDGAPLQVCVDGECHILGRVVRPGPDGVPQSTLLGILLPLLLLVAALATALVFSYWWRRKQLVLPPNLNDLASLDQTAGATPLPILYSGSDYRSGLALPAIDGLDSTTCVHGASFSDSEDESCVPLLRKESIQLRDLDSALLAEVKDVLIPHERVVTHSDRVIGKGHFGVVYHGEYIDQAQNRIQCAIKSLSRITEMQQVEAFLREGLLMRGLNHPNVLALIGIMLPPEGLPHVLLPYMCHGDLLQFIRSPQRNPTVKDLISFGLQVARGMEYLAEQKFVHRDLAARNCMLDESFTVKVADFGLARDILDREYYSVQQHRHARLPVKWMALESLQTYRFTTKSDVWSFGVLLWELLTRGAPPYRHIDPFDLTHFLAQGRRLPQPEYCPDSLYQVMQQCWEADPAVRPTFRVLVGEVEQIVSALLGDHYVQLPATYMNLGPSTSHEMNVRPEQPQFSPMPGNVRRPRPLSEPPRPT
Chain of UniProt Q14289 (Q14289 whole entry, looked up): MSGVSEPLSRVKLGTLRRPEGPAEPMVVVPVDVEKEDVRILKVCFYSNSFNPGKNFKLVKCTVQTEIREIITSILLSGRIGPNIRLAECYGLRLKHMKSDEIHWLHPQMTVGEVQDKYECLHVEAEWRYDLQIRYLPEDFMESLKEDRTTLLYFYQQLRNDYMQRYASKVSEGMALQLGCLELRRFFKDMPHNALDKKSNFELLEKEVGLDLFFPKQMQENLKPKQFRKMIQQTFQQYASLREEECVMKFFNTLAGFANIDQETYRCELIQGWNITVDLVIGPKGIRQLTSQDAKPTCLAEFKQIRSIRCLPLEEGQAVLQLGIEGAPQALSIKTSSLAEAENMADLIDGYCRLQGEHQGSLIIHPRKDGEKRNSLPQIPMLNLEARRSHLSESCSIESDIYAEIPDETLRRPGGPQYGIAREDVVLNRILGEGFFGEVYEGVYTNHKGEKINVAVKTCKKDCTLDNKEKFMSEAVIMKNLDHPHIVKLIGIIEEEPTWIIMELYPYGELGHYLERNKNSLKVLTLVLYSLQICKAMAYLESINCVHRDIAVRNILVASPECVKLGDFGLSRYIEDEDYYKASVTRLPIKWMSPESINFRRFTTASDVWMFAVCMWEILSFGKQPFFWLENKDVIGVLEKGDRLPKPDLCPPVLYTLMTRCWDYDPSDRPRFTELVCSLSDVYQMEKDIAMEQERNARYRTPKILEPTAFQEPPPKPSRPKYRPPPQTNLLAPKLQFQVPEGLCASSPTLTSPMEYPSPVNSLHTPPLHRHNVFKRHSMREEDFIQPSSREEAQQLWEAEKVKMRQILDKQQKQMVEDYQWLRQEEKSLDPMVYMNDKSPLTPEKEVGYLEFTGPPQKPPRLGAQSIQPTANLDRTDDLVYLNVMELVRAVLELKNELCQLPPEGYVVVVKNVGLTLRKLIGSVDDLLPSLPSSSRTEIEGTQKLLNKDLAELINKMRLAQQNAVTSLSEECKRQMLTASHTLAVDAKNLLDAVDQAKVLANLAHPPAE
Chain of UniProt Q9NWV4 (Q9NWV4 whole entry): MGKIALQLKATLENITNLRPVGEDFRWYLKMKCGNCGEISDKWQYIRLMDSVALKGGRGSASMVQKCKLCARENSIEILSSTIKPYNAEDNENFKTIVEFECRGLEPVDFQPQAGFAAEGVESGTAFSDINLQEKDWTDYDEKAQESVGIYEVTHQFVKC
Chain of PAK2 (Q13177 whole entry): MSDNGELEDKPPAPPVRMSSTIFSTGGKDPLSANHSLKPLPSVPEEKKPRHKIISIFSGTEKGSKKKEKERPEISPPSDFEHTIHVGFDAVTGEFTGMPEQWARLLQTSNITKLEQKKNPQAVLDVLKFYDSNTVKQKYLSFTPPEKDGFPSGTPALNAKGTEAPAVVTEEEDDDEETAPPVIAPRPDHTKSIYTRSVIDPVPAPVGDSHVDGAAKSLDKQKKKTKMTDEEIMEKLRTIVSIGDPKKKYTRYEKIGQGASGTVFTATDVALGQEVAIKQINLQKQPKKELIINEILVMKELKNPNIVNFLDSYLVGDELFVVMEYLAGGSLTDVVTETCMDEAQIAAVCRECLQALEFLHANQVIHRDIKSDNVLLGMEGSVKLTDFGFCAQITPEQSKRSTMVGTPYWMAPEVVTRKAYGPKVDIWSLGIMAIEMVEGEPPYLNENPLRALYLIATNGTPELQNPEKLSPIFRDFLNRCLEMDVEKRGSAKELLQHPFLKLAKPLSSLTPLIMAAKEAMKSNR
Chain of STK33 (Q9BYT3 whole entry, looked up): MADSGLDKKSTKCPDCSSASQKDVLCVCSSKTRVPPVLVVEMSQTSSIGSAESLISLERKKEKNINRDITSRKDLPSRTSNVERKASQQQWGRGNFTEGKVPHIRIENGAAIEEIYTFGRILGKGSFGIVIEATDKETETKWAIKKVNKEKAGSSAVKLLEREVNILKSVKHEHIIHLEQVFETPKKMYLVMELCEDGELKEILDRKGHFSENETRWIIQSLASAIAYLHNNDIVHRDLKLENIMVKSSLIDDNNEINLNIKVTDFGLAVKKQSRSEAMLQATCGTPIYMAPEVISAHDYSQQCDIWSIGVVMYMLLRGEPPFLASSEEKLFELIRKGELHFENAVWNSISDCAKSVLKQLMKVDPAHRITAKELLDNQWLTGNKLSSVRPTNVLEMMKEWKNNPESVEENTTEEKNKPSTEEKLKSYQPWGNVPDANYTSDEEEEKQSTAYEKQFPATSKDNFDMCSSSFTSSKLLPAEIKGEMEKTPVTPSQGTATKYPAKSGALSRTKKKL
Chain of RPS6KA4 (O75676 whole entry, looked up): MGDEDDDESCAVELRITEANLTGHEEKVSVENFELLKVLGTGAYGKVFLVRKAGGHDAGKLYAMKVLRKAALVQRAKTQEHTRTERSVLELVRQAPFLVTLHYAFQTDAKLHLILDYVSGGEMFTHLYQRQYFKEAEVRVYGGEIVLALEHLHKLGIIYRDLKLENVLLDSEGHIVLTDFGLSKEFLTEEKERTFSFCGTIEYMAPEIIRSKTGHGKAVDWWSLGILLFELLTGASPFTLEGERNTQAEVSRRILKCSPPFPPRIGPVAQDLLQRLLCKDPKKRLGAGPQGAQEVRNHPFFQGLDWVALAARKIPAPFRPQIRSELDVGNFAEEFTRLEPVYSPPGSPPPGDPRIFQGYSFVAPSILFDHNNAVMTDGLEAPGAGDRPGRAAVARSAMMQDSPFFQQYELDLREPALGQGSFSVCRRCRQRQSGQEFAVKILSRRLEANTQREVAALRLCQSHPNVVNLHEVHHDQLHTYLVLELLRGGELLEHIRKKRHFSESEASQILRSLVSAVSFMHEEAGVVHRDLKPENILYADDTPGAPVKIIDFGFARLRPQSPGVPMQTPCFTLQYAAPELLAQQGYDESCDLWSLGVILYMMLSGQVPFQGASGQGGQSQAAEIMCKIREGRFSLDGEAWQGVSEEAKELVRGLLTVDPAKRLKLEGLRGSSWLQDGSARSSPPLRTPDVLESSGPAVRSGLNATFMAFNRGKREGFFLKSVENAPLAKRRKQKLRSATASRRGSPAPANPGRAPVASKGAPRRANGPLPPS
Chain of MGLL (Q99685 whole entry): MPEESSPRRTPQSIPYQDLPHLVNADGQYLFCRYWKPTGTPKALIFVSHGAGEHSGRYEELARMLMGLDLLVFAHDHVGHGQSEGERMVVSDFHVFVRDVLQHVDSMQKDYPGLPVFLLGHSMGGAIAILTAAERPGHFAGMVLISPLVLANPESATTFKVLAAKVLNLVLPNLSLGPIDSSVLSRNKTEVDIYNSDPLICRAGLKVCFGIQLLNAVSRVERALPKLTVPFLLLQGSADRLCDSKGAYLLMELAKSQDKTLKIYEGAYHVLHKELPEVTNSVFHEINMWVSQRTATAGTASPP

Structure (SMILES): CCc1cnn2c(NCc3ccc[n+]([O-])c3)cc(N3CCCC[C@H]3CCO)nc12 [dinaciclib]
- pIC50 (LIMK2): < 4.52
- pIC50 (UniProt Q9NWV4): < 4.52
- pIC50 (IRAK4): < 4.52
- pIC50 (RPS6KA4): < 4.52
- pIC50 (STK35): < 4.52
- pIC50 (PAK2): < 4.52
- pIC50 (MGLL): < 4.52
- pIC50 (STK33): < 4.52
- pIC50 (UniProt Q14289): < 4.52

Structure (SMILES): C#CCNC(=O)c1cc(Nc2cc(C3CC3)[nH]n2)nc(N2CCN(Cc3ccc(S(=O)(=O)F)cc3)CC2)n1
- pIC50 (UniProt Q9UQB9; cell material: Jurkat lysate): 5.48
- pIC50 (UniProt Q9UQB9; cell material: Lysate mix): 5.81
- pIC50 (ILK; cell material: Jurkat cells): 5.41
- pIC50 (ILK; cell material: Jurkat lysate): < 4.52
- pIC50 (MASTL; cell material: Jurkat cells): 6.15
- pIC50 (MASTL; cell material: Jurkat lysate): 6.03
- pIC50 (MASTL; cell material: Lysate mix): 6.74

Structure (SMILES): O=C(NCCNC(=O)c1cc(Nc2cc(C3CC3)[nH]n2)nc(N2CCN(Cc3ccc(S(=O)(=O)F)cc3)CC2)n1)OC1CC/C=C/CCC1 (stereo not drawn)
- pIC50 (UniProt Q9UQB9; cell material: Lysate mix): 4.88
- pIC50 (ILK; cell material: Jurkat cells): < 4.52
- pIC50 (ILK; cell material: Jurkat lysate): < 4.52
- pIC50 (ILK; cell material: Lysate mix): < 4.52
- pIC50 (MASTL; cell material: Jurkat cells): 6.1
- pIC50 (UniProt Q04912): < 4.52

Structure (SMILES): Cc1cc(Nc2cc(C(=O)NCCNC(=O)OC3CC/C=C/CCC3)nc(N3CCN(Cc4ccc(S(=O)(=O)F)cc4)CC3)n2)n[nH]1 (stereo not drawn)
- pIC50 (UniProt Q9UQB9; cell material: Lysate mix): 4.7
- pIC50 (ILK; cell material: Lysate mix): < 4.52
- pIC50 (MASTL; cell material: Lysate mix): < 4.52
- pIC50 (UniProt Q04912): < 4.52

Results, then the compound that gave them:

- pIC50 (ILK; cell material: Lysate mix): < 4.52
- pIC50 (UniProt Q04912): < 4.52
Structure (SMILES): C#CCNC(=O)c1cc(Nc2cc(C)[nH]n2)nc(N2CCN(Cc3ccc(S(=O)(=O)F)cc3)CC2)n1

- pIC50 (UniProt Q9UQB9; cell material: Lysate mix): 5.26
- pIC50 (ILK; cell material: Lysate mix): < 4.52
- pIC50 (MASTL; cell material: Lysate mix): 6.85
- pIC50 (UniProt Q04912): < 4.52
Structure (SMILES): CCNC(=O)c1cc(Nc2cc(C3CC3)[nH]n2)nc(N2CCN(Cc3ccc(S(=O)(=O)F)cc3)CC2)n1

- pIC50 (UniProt Q9UQB9; cell material: Lysate mix): 5.64
- pIC50 (UniProt Q04912): 4.54
Structure (SMILES): CCNC(=O)c1cc(Nc2cc(C)[nH]n2)nc(N2CCN(Cc3ccc(S(=O)(=O)F)cc3)CC2)n1

- pIC50 (LIMK2): < 4.52
- pIC50 (UniProt Q9NWV4): < 4.52
- pIC50 (IRAK4): < 4.52
- pIC50 (RPS6KA4): < 4.52
- pIC50 (STK35): < 4.52
- pIC50 (PAK2): < 4.52
- pIC50 (MGLL): < 4.52
- pIC50 (STK33): < 4.52
- pIC50 (UniProt Q14289): 4.62
Structure (SMILES): CC#CC(=O)Nc1ccc2ncnc(Nc3cccc(Br)c3)c2c1 [EKI-785]
